Assays:
[1] = target: T1, Polyunsaturated fatty acid lipoxygenase ALOX15 (Oryctolagus cuniculus, UniProt P12530); assay: Inhibition of rabbit 15-lipoxygenase in presence of linoleic acid
T1 sequence (P12530 whole entry): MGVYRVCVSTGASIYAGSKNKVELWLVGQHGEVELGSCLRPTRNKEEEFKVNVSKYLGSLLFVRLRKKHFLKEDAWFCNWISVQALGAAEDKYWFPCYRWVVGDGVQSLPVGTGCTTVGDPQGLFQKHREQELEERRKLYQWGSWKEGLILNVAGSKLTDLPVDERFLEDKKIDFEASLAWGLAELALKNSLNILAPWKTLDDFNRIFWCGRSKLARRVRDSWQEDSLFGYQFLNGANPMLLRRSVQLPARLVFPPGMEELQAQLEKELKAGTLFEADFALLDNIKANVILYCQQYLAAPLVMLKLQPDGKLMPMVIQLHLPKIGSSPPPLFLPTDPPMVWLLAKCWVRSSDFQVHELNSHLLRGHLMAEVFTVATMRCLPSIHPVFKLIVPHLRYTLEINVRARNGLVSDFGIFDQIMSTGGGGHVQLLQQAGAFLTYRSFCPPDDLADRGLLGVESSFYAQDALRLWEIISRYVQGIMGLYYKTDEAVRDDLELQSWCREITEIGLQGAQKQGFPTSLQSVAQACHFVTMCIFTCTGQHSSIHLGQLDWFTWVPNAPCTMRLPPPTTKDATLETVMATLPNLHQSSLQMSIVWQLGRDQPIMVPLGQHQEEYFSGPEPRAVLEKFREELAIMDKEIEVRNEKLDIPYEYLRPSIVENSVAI

[2] = target: T1, Polyunsaturated fatty acid lipoxygenase ALOX15; assay: Inhibition of rabbit 15-lipoxygenase in presence of arachidonic acid

Row | Compound | IC50 [1] [µM] | IC50 [2] [µM]
1 | CCCCCc1ccc(S(=O)(=O)NCCc2nc(-c3ccccc3)[nH]c2-c2ccc(C(F)(F)F)cc2)cc1 | 0.072 | 0.372
2 | CCCCCc1ccc(S(=O)(=O)NCCc2nc(-c3ccc(C)cc3)[nH]c2-c2ccc(OC)cc2)cc1 | > 3 | –
3 | COc1ccc(-c2[nH]c(-c3ccccc3)nc2CCNS(=O)(=O)c2ccc(C)cc2)cc1 | 0.364 | 2.8
4 | CCN([C@@H]1CCN(C(C)(C)c2ccccc2)C1)S(=O)(=O)NCCc1nc(-c2cccs2)[nH]c1-c1ccc(OC)cc1 | 0.01 | 0.132
5 | CCCCCc1ccc(S(=O)(=O)NCCc2nc(-c3ccccc3)[nH]c2-c2cccc(OC)c2)cc1 | 0.082 | 0.531
6 | CCCCCc1ccc(S(=O)(=O)NCCCc2nc(-c3ccccc3)[nH]c2-c2ccc(OC)cc2)cc1 | 0.14 | 0.914
7 | CCCCCc1ccc(S(=O)(=O)NCCc2nc(-c3ccc(Cl)cc3)[nH]c2-c2ccc(OC)cc2)cc1 | 0.021 | 1.1
8 | CCCCCc1ccc(S(=O)(=O)NCCc2nc(-c3ccc(OC)cc3)[nH]c2-c2ccc(OC)cc2)cc1 | > 10 | –
9 | CCCCCc1ccc(S(=O)(=O)NCCCc2nc(-c3cccs3)[nH]c2-c2ccc(OC)cc2)cc1 | 0.053 | 0.396
10 | CCCCCc1ccc(S(=O)(=O)NCCc2nc(-c3cccc([N+](=O)[O-])c3)[nH]c2-c2ccc(OC)cc2)cc1 | 0.099 | 1.1
11 | CCCCCc1ccc(S(=O)(=O)NCCc2nc(C3CC3)[nH]c2-c2ccc(OC)cc2)cc1 | > 10 | > 10
12 | COc1ccc(-c2[nH]c(-c3ccccc3)nc2CCNS(=O)(=O)N[C@H]2CCN(Cc3ccccc3)C2)cc1 | 0.272 | 2.41
13 | COc1ccc(-c2[nH]c(-c3ccccc3)nc2CCNS(=O)(=O)N2CCN(c3ccccc3)CC2)cc1 | 0.212 | 3.45
14 | CCCCCc1ccc(S(=O)(=O)NCCc2nc(-c3csc(C)n3)[nH]c2-c2ccc(OC)cc2)cc1 | 0.72 | –
15 | CCCCCc1ccc(S(=O)(=O)NCCc2nc(-c3ccncc3)[nH]c2-c2ccc(OC)cc2)cc1 | 0.087 | 3.21
16 | CCCCCc1ccc(S(=O)(=O)NCCc2[nH]cnc2-c2ccc(OC)cc2)cc1 | > 10 | –
17 | CCCCCc1ccc(S(=O)(=O)NCCc2nc(-c3cnccn3)[nH]c2-c2ccc(OC)cc2)cc1 | 2.81 | –
18 | CCCCCN1CCN(S(=O)(=O)NCCc2nc(-c3cccs3)[nH]c2-c2ccc(OC)cc2)CC1 | 0.091 | 0.646
19 | COc1ccc(-c2[nH]c(-c3ccccc3)nc2CCNS(=O)(=O)N(C)[C@H]2CCN(Cc3ccccc3)C2)cc1 | 0.08 | 0.0822
20 | CCCCCc1ccc(S(=O)(=O)NCCc2nc(-c3cccnc3)[nH]c2-c2ccc(OC)cc2)cc1 | 0.56 | –
21 | CCCCCc1ccc(S(=O)(=O)NCCc2nc(C)[nH]c2-c2ccc(OC)cc2)cc1 | > 10 | –
22 | CCCCCc1ccc(S(=O)(=O)NCCc2nc(C(C)(C)C)[nH]c2-c2ccc(OC)cc2)cc1 | 1.92 | > 10
23 | COc1ccc(-c2[nH]c(-c3ccccc3)nc2CCNS(=O)(=O)N[C@@H]2CCN(Cc3ccccc3)C2)cc1 | 0.083 | 0.719
24 | COc1ccc(-c2[nH]c(-c3cccs3)nc2CCNS(=O)(=O)N2CCN(c3ccccc3Cl)CC2)cc1 | 0.045 | 0.132
25 | COc1ccc(-c2[nH]c(-c3ccccc3)nc2CCNS(=O)(=O)N2CCN(c3ccc(Cl)c(Cl)c3)CC2)cc1 | 0.055 | 0.378
26 | CCCCCc1ccc(S(=O)(=O)NCCc2nc(-c3ccccn3)[nH]c2-c2ccc(OC)cc2)cc1 | 0.97 | 5.32
27 | COc1ccc(-c2[nH]c(-c3cccs3)nc2CCNS(=O)(=O)N(C)[C@@H]2CCN(Cc3ccccc3)C2)cc1 | 0.038 | 0.375

— ChEMBL document CHEMBL1149679 (Bioorg Med Chem Lett, 2007)
